Values quoted from earlier work as cited in patent EP0918795B1, “ANTIANGIOGENIC DRUG TO TREAT CANCER, ARTHRITIS AND RETINOPATHY” (Abbott Laboratories, priority 1997, dated 2004).
No end group written: not given here.

Tests used:
[1] = tested on: cultured endothelial cells; settings: inhibition of the migration of cultured endothelial cells

Q: Which “neovascularization in vivo in the rat cornea” value (rat cornea) does the source give for “SPWSSASVTAGDGVITRIR [MalII, 19-mer synthetic peptide mimicking properdin-like repeat region 1 of TSP1]” here?
A: blocked neovascularization

Q: What about the ED50 [1] of the same sequence?
A: about 1 µM
